Assay: gradient 5% acetonitrile 3 min, to 50% in 2 min, to 85% in 15 min, held 3 min, 100 µL/min
Conditions: column: Zorbax Extend-C18 2.1 x 50 mm; eluents: water / acetonitrile, 0.1% formic acid
Outline: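 Each retention time is based on an adduct peak selected computationally and verified by manual inspection. Measurements used HPLC–quadrupole time-of-flight mass spectrometry in positive and negative ionization mode on mixtures of ~100 pure standards. Chromatography ran on a Zorbax Extend-C18 column (2.1 × 50 mm, 1.8 μm) at 100 μL/min with water and acetonitrile, each containing 0.1% formic acid, and dead and dwell volumes of 40 μL and 900 μL.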

RP-LC retention time [s]	Structure (SMILES)
609	Cc1cnc(C2CCC2)n1CC1CCN(C(=O)Nc2ccc3c(c2)OCCO3)C1 (stereo unspecified)
1110	Cc1cc(C)cc(C(=O)N2CCCC(C(=O)Nc3ccc(Br)c(C)c3)C2)c1 (stereo unspecified)
819	COc1ccc(C(=O)Cn2c(=O)n(Cc3ccc4c(c3)OCO4)c(=O)c3ncccc32)cc1
629	CCCNC(=O)c1cc2sc(C)c(CN3CCCCC3)c2[nH]1
921	O=C(CCc1nnc(C(=O)Nc2ccccc2)s1)NCCc1c[nH]c2ccc(Cl)cc12
922	CCc1ccc(NC(=O)C2CCN(S(=O)(=O)c3cc(C(=O)N4CCCC4)cs3)CC2)cc1
751	CC(=O)Nc1ccc(C2(C(=O)NCc3cccc(F)c3)CCC2)cc1
807	CCN1c2cc(F)ccc2C(=O)NC12CCN(C(=O)c1ccc(C)cc1)CC2
922	CCCCn1cnc2c(-c3ccccc3)cn(CC(=O)NCc3ccco3)c2c1=O
806	Cc1ccsc1C(=O)NCCn1c(=O)n(Cc2ccccc2)c2cccnc21
726	O=C(Cc1cccs1)N1CCCCC1c1nc(-c2cnccn2)no1 (stereo unspecified)
703	CC(=O)Oc1ccc(OC(C)=O)c2c1CC1(C)OC1(C)C2 (stereo unspecified)
899	O=C(c1cn2cc(Cl)ccc2n1)N1CCN(c2ccc(Cl)cc2)CC1
788	CCc1onc(C)c1C1CCCN1C(=O)c1c(F)cccc1F (stereo unspecified)
1000	CC(C)c1cc(C(=O)Nc2cccc(C(F)(F)F)c2)nn1C1CCS(=O)(=O)C1 (stereo unspecified)
1320	CC1CCN(c2nn(CC(=O)Nc3cccc(C(C)C)c3)c(=O)c3ccccc23)CC1
713	Cc1noc(CN2CCN(C3CCN(Cc4cc(Cl)ccc4F)C3)C2=O)n1 (stereo unspecified)
1220	Cc1ccc(-c2nnc(Cc3nc(-c4cccc(C(F)(F)F)c4)no3)o2)cc1C
763	Cc1cc(C)n(-c2ccc(=O)n(CCNS(=O)(=O)c3ccccc3C(F)(F)F)n2)n1
807	Cc1nn(C)c(=O)c2cc(S(=O)(=O)NCc3ccccc3Cl)cn12
701	Cc1ccc(NC(=O)C2CCN(S(=O)(=O)c3cn(C)cn3)CC2)cc1
1060	CCOCCCNC(=O)Cn1cccc1-c1nc(-c2ccc(Cl)cc2)cs1
758	CCn1ccc2c(cc(C(=O)Nc3ccccc3Br)n2C)c1=O

RP-LC retention time [s]	Structure (SMILES)
684	COc1ccc(-c2nc3ccc(C)cn3c2Nc2ccc3c(c2)OCO3)cc1
651	COc1ccccc1N1CCN(C(=O)c2cc3c(=O)n(C)ccc3n2C)CC1
740	Cc1ccc(N2CCC(NC(=O)NC(C)C)C2=O)cc1C (stereo unspecified)
812	Cc1nn(-c2ccc(Cl)cc2)c(C)c1S(=O)(=O)Nc1ccc(S(N)(=O)=O)cc1
674	CCc1cc(=O)n(CC(=O)N(C)c2ccccc2)c(N2CCOCC2)n1
971	CCn1cc(-c2nc(C)c(C(=O)Nc3cccc(C)c3)s2)c2cccnc21
841	COC1CCC12CCN(C(=O)C1CCCC1)CC2 (stereo unspecified)
679	CCCCNC(=O)C(C)Sc1nc2nc(C)cc(C)n2n1 (stereo unspecified)
1170	Cc1ccc(NS(=O)(=O)c2cccnc2Nc2ccc(Cl)cc2)cc1
982	CCn1ccc2sc(C)c(C(=O)NCc3c(C)cc(C)cc3C)c2c1=O
776	COc1ccc(NC(=O)c2cccn2Cc2noc(C)n2)cc1
613	O=C(NC1CC1)c1ccc(-c2ccc(N3CCCCC3)nc2)cc1
873	CC(=O)Nc1cccc(-c2nc(-c3ccc4c(c3)oc(=O)n4C(C)C)no2)c1C
974	CC(C)n1cc(S(=O)(=O)NCc2ccc(C(F)(F)F)cc2)c2cccnc21
764	CCc1noc(NC(C)=O)c1-c1ccc(OC)c(S(=O)(=O)Nc2ccccc2)c1
901	O=C1[C@H]2CN(Cc3ccc(Cl)c(F)c3)C[C@H]2C(=O)N1CCc1ccccc1
605	O=C(NCCN1CCOCC1)c1ccc(-c2c(-c3ccc(F)cc3)ncn2C2CCCCC2)o1
801	O=c1ccc(N2CCC(NS(=O)(=O)c3cccs3)C2)nn1CCOc1ccccc1 (stereo unspecified)
715	COc1ccc(-c2ncccc2CNS(=O)(=O)c2ccc(C)cc2C)cc1
815	c1cc(N2CCSCC2)ncc1-c1noc(CN2CCSCC2)n1
683	Cc1ccn2cc(C(=O)NC3CCCCCC3)nc2c1
1080	O=C(Nc1cccc(C(F)(F)F)c1)Nc1cc(Cl)ccc1C(=O)O
1040	Cc1occc1-c1nnc2sc(COc3ccc(Br)cc3)nn12

RP-LC retention time [s]	Structure (SMILES)
662	COc1ccc(OC)c(NC(=O)NCC(c2cccnc2)c2c[nH]c3ccccc23)c1 (stereo unspecified)
1070	CCCC(NC(=O)Cc1ccc(OCC)c(OCC)c1)C(=O)Nc1nc2ccccc2[nH]1 (stereo unspecified)
894	Cn1ncc2c(N3CCCCC3)nc(C(=O)N3CCN(c4ccc(F)cc4)CC3)nc21
700	COCCCNC(=O)C1CCCN(C(=O)c2cc(C)cc(C)c2)C1 (stereo unspecified)
548	Cc1cc(C)cc(NC(=O)CN2CCC(C(=O)NCc3ccccn3)CC2)c1
931	CCOC(=O)c1nc(NCc2ccc(F)cc2)c2ccccc2n1
632	CNC(=O)C1CCCN(c2nc3ncn(CC(=O)NC4CCCCC4)c(=O)c3s2)C1 (stereo unspecified)
1010	COC(=O)CCNC(=O)C1c2ccccc2C(=O)N(C2CCCCC2)C12CCCCC2 (stereo unspecified)
863	Cc1cnn(Cc2nc(-c3ccc(NC(=O)C(C)(C)C)cc3)oc2C)c1
712	CSc1ccccc1C(=O)NCC1CN(c2ccccc2)C(=O)O1 (stereo unspecified)
667	COc1cn(C)c(C(=O)NCCC(c2ccccc2)c2ccccc2)cc1=O
812	Cc1ccc(Nc2c(-c3cc(Br)ccc3F)nc3ccc(C)cn23)cc1
767	Cc1cc(Cl)ccc1OCC(=O)N1CCCCC1c1nncn1C (stereo unspecified)
595	CC(C)n1cnc2cc(CNC(=O)C3CCCC3)ccc21
651	O=C(NC1CCN(c2nnc3ccc(Cl)cn23)CC1)c1ccc(N2CCCC2=O)cc1
965	C[C@@H]1CN(C(=O)c2cccs2)C[C@H]1c1nc(-c2ccccc2)no1
828	Cc1ccc(Nc2c(-c3ccc(N(C)C)cc3)nc3cc(C)ccn23)cc1
677	COc1ccccc1NC(=O)N1C[C@@H](F)C[C@H]1C(=O)N1CCCCC1
623	O=c1cc(N2CCOCC2)c(-c2ccccc2)n[nH]1
947	COc1ccc(CCC(=O)NCC2(c3cccs3)CCCC2)cc1
1230	Cc1ccc(C)c(N2CCN(c3ncc(S(=O)(=O)c4ccccc4)c(N)n3)CC2)c1
1040	Cc1nc2cc(-c3noc(-c4nn(C)c5ccccc45)n3)ccc2o1
777	CCOC(=O)C1CCN(c2cc3c(cc2NC(=O)NC2CCCC2)n(C)c(=O)n3C)CC1

RP-LC retention time [s]	Structure (SMILES)
1300	CCCCn1c(=O)c2ccccc2n(Cc2nc(-c3ccc(Br)cc3)no2)c1=O
757	CC(C)N1CCn2cc(S(=O)(=O)Nc3ccc(F)cc3)cc2C1=O
660	Cc1nnc2ccc(NC(=O)Nc3ccc(F)cc3)cn12
984	CC(C)(C)c1noc(-c2cccnc2-n2cnc(C(=O)Nc3ccc(F)cc3)c2)n1
559	CN1CCC(N2CCN(C(=O)CCc3cn(C)nc3-c3ccc(F)cc3)CC2)CC1
634	Cc1ccc(C)c(NC(=O)N2CCC(n3cnnc3C3CC3)C2)c1 (stereo unspecified)
605	Cc1ccc(C)c(CNC(=O)CCNc2cnc3cnccn23)c1
660	O=C(NCc1ccc(F)cc1F)C1CCCN(c2cn[nH]c(=O)c2)C1 (stereo unspecified)
706	COC(=O)Cn1c(COc2ccccc2)nc2ccccc21
682	O=C(Cn1c(C(F)(F)F)nc2cc3c(cc21)OCCO3)N1CCOCC1
780	Cc1ccc2nc(-c3ccccc3Cl)c(Nc3ccc(Cl)cc3)n2c1
942	CCn1c(=O)sc2cc(S(=O)(=O)N3CCC(C(=O)NCCc4ccccc4)CC3)ccc21
743	COC(=O)c1c(C)[nH]c(C(=O)N2CCC(CC(=O)NCc3ccccc3F)CC2)c1C
813	CCN1c2cc(F)ccc2C(=O)NC12CCN(C(=O)c1cc(OC)cc(OC)c1)CC2
610	COc1cccc(CN2CCc3nc(N4CCCC4)ncc3C2)c1OC
923	COc1ccc(-c2noc(-c3nn(-c4ccc(C)c(C)c4)ccc3=O)n2)cc1
717	CC(C)CCC(=O)NCCc1nc2cccnc2n1-c1ccccc1
972	Cc1ccc(F)cc1NC(=O)Cn1nc2cc(-c3ccccc3)nc(C)n2c1=O
631	CC(C)Cn1nc2n(c1=O)CCN(S(=O)(=O)c1ccc(C(C)(C)C)cc1)CC2
565	CCN1CCN(c2cc(C(=O)O)c3cc(NC(=O)C4CCC4)ccc3n2)CC1

Structure (SMILES)	RP-LC retention time [s]
N[C@H]1C[C@@H]1c1ccccc1	578
Cn1cc(-c2ccncc2)cc1C(=O)N1CCC2(CC1)OCCO2	562

Reference: the METLIN SMRT retention time set (Domingo-Almenara et al. 2019)
